Reference: US12234229B2, “Sphingosine kinase inhibitor amidoxime prodrugs” (University of Virginia Patent Foundation, priority 2016, dated 2025)

Experiments:
[1] = patients, 1-yr trial; cited from earlier work
[2] = biological target: T1, human sphingosine kinase type 2 (hSPHK2) (Homo sapiens, UniProt Q9NRA0); assay: Sphingosine kinase assay, recombinant human SPHK2 ([32P]S1P product, scintillation counting); type: biochemical; conditions: read-out: activity hSPHK2 (range estimates of KI values)
T1 construct: purchased; host or cells: Sf9 insect cells (baculovirus)
T1 sequence (Q9NRA0 1-654): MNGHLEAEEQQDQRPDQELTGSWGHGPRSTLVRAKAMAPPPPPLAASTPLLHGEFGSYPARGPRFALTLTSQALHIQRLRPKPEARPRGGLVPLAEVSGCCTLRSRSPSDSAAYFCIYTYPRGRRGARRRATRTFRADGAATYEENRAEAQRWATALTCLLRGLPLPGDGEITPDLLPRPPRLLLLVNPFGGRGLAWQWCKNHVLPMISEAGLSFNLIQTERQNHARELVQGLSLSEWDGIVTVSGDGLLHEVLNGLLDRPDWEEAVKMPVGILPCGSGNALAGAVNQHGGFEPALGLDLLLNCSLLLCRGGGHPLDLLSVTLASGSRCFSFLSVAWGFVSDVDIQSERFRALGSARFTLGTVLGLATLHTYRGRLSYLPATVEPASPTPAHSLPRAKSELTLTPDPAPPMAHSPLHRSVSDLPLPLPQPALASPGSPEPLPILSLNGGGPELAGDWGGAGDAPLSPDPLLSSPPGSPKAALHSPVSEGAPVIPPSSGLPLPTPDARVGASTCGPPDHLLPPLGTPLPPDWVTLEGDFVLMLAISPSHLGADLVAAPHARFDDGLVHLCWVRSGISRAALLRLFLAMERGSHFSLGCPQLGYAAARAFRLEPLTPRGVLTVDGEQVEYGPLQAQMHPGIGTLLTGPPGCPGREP
Description: (§1) Recombinant baculovirus encoding human sphingosine kinase type 1 (SPHK1) was used to infect Sf9 insect cells and after 2-5 days, cleared lysates were prepared and used without further purification. Human SPHK2, which was partially purified from baculovirus-infected Sf9 cell lysates, was purchased from a commercial source. Sphingosine kinase assays were performed using standard protocols. Product [^32P]S1P was recovered by binding to cation exchange paper and quantified by scintillation counting.

[3] = tested on: sphingosine kinase type 2 (SphK2); assay: Blood sphingosine 1-phosphate (S1P) in mice after oral dosing, LC-MS-MS; type: in vivo; conditions: C57Bl/6 mice, oral gavage 20 mg/kg, blood drawn immediately, at 2 h, 6 and 24 h, FIG. 1A
Description: FIGS. 1A-1B. Four C57Bl/6 mice were dosed by oral gavage with 20 mg/kg of Compound 6. At the indicated times, blood was drawn, whole prepared for analysis, and the amount sphingosine 1-phosphate (S1P) was quantified by LC-MS-MS (FIG. 1A). The rise in S1P is indicative of inhibition of sphingosine kinase type 2 (SphK2).
Four C57Bl/6 mice were dosed by oral gavage with 20 mg/kg of Compound 6 (Example 113). Blood was drawn immediately, at 2h, 6, and 24 h after administration, whole prepared for analysis, and the amount of sphingosine 1-phosphate (S1P) was quantified by LC-MS-MS, as shown in FIG. 1A.

[4] = biological target: T2, human sphingosine kinase type 1 (hSPHK1) (Homo sapiens, UniProt Q9NYA1); assay: Sphingosine kinase assay, recombinant human SPHK1 ([32P]S1P product, scintillation counting); type: biochemical; conditions: read-out: activity hSPHK1 (range estimates of KI values)
T2 construct: made in house; host or cells: Sf9 insect cells (baculovirus)
Description: as §1

T2 sequence (Q9NYA1 whole entry): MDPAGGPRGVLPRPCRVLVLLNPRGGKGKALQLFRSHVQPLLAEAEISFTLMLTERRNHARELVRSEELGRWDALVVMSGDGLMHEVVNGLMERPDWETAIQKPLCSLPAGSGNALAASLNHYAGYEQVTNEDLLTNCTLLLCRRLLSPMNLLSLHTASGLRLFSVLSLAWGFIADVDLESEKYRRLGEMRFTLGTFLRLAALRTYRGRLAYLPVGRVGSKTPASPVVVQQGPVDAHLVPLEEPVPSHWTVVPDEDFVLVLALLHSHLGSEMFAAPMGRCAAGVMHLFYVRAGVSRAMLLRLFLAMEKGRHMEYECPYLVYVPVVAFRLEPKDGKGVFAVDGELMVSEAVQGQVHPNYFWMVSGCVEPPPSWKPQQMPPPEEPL

| SMILES | Ki [2] [µM] | other results |
| --- | --- | --- |
| CCCCCCCCc1ccc(CCC(N)(CO)CO)cc1 [fingolimod, 2-amino-2-[2-(4-octylphenyl)ethyl] propane 1,3-diol] |  | hypertension (blood pressure rise) [1]: 2-3 mmHg |
| CCCCCCCCOc1ccc(-c2noc([C@@H]3[C@@H](O)CCN3/C(N)=N/O)n2)cc1C(F)(F)F [Compound 6, (2S,3S)—N,3-dihydroxy-2-(3-(4-(octyloxy)-3-(trifluoromethyl)phenyl)-1,2,4-oxadiazol-5-yl)pyrrolidine-1-carboximidamide] |  | amount of sphingosine 1-phosphate (S1P) in blood [3]: rise in S1P |

Further lines, with some results ahead:

| Ki [2] [µM] | SMILES | other results |
| --- | --- | --- |
| < 1 | CCCCCCCCCn1ccc2cc(-c3noc([C@@H]4CCCN4C(=N)N)n3)ccc21 [Compound 17A, (S)-amino(2-(3-(1-nonyl-1H-indol-5-yl)-1,2,4-oxadiazol-5-yl)pyrrolidin-1-yl)methaniminium chloride] |  |
| > 10 | C=COCc1ccc(-c2noc([C@@H]3CCCN3C(=N)N)n2)cc1C(F)(F)F [Compound 77A] | Ki [4]: > 10 µM |
| < 1 | CCCCCCCCOc1ccc(-c2noc([C@@H]3[C@@H](O)CCN3C(=N)N)n2)cc1C(F)(F)F [Compound 6A, amino((2S,3S)-3-hydroxy-2-(3-(4-(octyloxy)-3-(trifluoromethyl)phenyl)-1,2,4-oxadiazol-5-yl)pyrrolidin-1-yl)methaniminium chloride] |  |
